Like-named read-outs stand apart in the source and are kept apart here.
Key:
[1] = tested on: LPS-stimulated IL-6 production in THP-1 macrophages; assay: ELISA of LPS-stimulated IL-6 production in THP-1 macrophages; format: cell-based, human; conditions: 10 μM; for first-tier screening result (AMPK/mTOR activation status and IL-6/IL-6 receptor signaling): LPS-stimulated THP-1 macrophages; for inhibition at 10 µM: Homo sapiens, 6 h, LPS-stimulated THP-1, read-out: inhibition of IL-6 production
Description: Cells and cell culture. THP-1 monocytic cells were purchased from the American Type Culture Collection (Rockville, Md.), and maintained with L-glutamine-containing RPMI 1640 supplemented with 10% fetal bovine serum (FBS), 0.25% glucose, 0.01% sodium pyruvate, 50 μM 2-mercaptoethanol, and 0.1 ml/ml penicillin/streptomycin/L-glutamine. Differentiation of THP-1 monocytes into macrophages was carried out by exposure to PMA (50 nM) in the aforementioned RPMI 1640 medium for 24 h. Colon-26 (C-26) adenocarcinoma cells were provided by a researcher at The Ohio State University. The C-26 cells were maintained in RPMI 1640 medium supplemented with 5% FBS and 1% penicillin/streptomycin.
ELISA. IL-6 release by differentiated THP-1 macrophages in response to 10 ng/ml of LPS was analyzed by using the IL-6 ELISA kit (Cayman Chemical Co.; Ann Arbor, Mich.) according to the manufacturer's instruction in triplicate. The effect of each test compound on LPS-stimulated IL-6 release is presented as percent inhibition and was calculated using the following formula: percentage inhibition=100%×{1−[(O.D. of sample−O.D. of control)/(O.D. of LPS−O.D. of control)]}.

[2] = tested on: cancer cells; conditions: reported in literature; cited from earlier work
[3] = tested on: LNCaP prostate cancer cells; assay: MTT cell viability assay, LNCaP cells; format: cell-based; conditions: Homo sapiens
Description: The compounds were tested for their ability to decrease LNCaP prostate cancer cell viability as measured by the 3-(4,5-dimethylthiazol-2-yl)-2,5-diphenyltetrazolium bromide) (MTT) assay.
(§1) Cell viability was determined using the 3-(4,5-dimethylthiazol-2-yl)-2,5-diphenyltetrazolium bromide) (MTT) assay. LNCaP and MCF-7 cells were seeded in 96-well plates (5000 cells/well) and incubated in their respective culture media supplemented with 10% FBS for 24 h. […] Drug-containing medium was then replaced with 1×MTT (0.5 mg/mL in RPMI 1640), followed by incubation at 37° C. for 2 h. After removal of medium, the reduced MTT dye was solubilized in 200 μL/well DMSO, and absorbances were measured at 570 nm.

[4] = tested on: glucose metabolism; assay: In vitro potency in blocking glucose metabolism; format: cell-based
[5] = tested on: normal prostate epithelial cells (PrECs)
Description: LNCaP hormone-responsive prostate cancer cells and MCF-7 ERα-positive breast cancer cells were obtained from the American Type Culture Collection (Manassas, Va.) and maintained with 10% fetal bovine serum (FBS)-supplemented RPMI 1640 medium and F12/DMEM medium, respectively. Nonmalignant prostate epithelial cells (PrEC) were maintained in prostate epithelial growth medium (PrEGM) (Lonza Inc., Walkersville, Md.). All cells were cultured at 37° C. in a humidified incubator containing 5% CO2. […] Glucose-free RPMI 1640 medium was purchased from Invitrogen (Carlsbad, Calif.). 2-DG, resveratrol, 3-methyladenine (3-MA), nicotinamide and splitomicin were purchased from Sigma-Aldrich (St. Louis, Mo.). The AMPK inhibitor Compound C and cycloheximide were obtained from Calbiochem (San Diego, Calif.). These agents were added to medium with a final DMSO concentration of 0.1%.
as §1

[6] = tested on: Sirt1 gene expression in LNCaP cells; assay: Time course of Sirt1 expression in LNCaP cells (Western blot/RT-PCR); format: cell-based; conditions: OSU-CG12 10 μM, 2-DG 10 mM
Description: Total RNA was isolated from drug-treated LNCaP cells using the RNeasy mini kit (Qiagen, Valencia, Calif.), and then reverse-transcribed to cDNA using the Omniscript RT Kit (Qiagen) according to manufacturer's instructions. PCR products were separated electrophoretically in 1% agarose gels and visualized by ethidium bromide staining.
Transfections were performed by electroporation using Nucleofector kit R of the Amaxa Nucleofector system (Amaxa Biosystems, Cologne, Germany). LNCaP cells were transfected with the following plasmids or siRNA: WT- and H363Y-Flag-Sirt1 (DN-Sirt1), WT- and K45R-Myc-AMPK (DN-AMPK), GFP-LC3, TSC2 shRNA, and DDIT3 siRNA (GADD153). […] For the fluorescent microscopic analysis, LNCaP cells transfected with the GFP-LC3 expression plasmid or with scrambled or TSC2 shRNA were treated as indicated for 36 h. After cells were fixed with 3.7% formaldehyde at room temperature for 20 min, nuclear counterstaining was performed using a 4,6-diamidino-2-phenylindole (DAPI)-containing mounting medium (Vector Laborotaries, Burlingame, Calif.) before examination. Images were observed using a Nikon microscope (Eclipse TE300).

[7] = tested on: MCF-7 breast cancer cells; assay: MTT cell viability assay, MCF-7 cells; format: cell-based; conditions: Homo sapiens, MCF7, 72 h, 10% FBS-supplemented medium, read-out: IC50 in inhibiting the viability of MCF-7 breast cancer cells
Description: as §1

[8] = tested on: [3H]-2-DG uptake into LNCaP cells; assay: Glucose uptake assay ([3H]-2-DG); format: cell-based; conditions: OSU-CG12 at 5 and 10 μM, resveratrol at 50 and 100 μM, P<0.05
Description: After washing cells with PBS, glucose uptake was initiated by addition of 1 mL of PBS containing 1 μCi/mL [^3H]-2-DG (Perkin Elmer, Waltham, Mass.) and […] nonradioactive 2-DG. After 5 min, glucose uptake was terminated by extensive washing with PBS, and cells were solubilized in 0.1% SDS buffer. Aliquots were taken for measurements of radioactivity using a scintillation counter LS6500 (Beckman).

[9] = LNCaP, MTT, 72 h, 10% FBS-supplemented medium, read-out: IC50 in inhibiting the viability of LNCaP prostate cancer cells

| SMILES | first-tier screening result (AMPK/mTOR activation status and IL-6/IL-6 receptor signaling) [1] | inhibition at 10 µM [1] | IC50 [3, 9] | IC50 [7] | further results |
| --- | --- | --- | --- | --- | --- |
| Cc1c(C)c2c(c(C)c1OCCCC#N)CCC(C)(COc1ccc(C=C3SC(=O)NC3=O)cc1Br)O2 (stereo not drawn) [Compound 21, 4-{2-[2-Bromo-4-(2,4-dioxo-thiazolidin-5-ylidenemethyl)-phenoxymethyl]-2,5,7,8-tetramethyl-chroman-6-yloxy}-butyronitrile] | active | > 80% |  |  |  |
| O=CC[C@@H](O)[C@H](O)[C@H](O)CO [2-DG, 2-deoxyglucose] |  |  | 5500 µM | 4200 µM | dose range inducing autophagy in cancer cells [2]: 5 to 25 mM; IC50 [4]: ≥ 4000 µM; cytotoxicity to normal prostate epithelial cells (PrECs) [5]: low cytotoxicity; duration of transient transcriptional activation of Sirt1 gene expression [6]: 4 h |
| CCCCOc1c(C)c(C)c2c(c1C)CCC(C)(COc1ccc(C=C3SC(=O)NC3=O)cc1OC)O2 (stereo not drawn) [Compound 12, 5-[4-(6-Butoxy-2,5,7,8-tetramethyl-chroman-2-ylmethoxy)-3-methoxy-benzylidene]-thiazolidine-2,4-dione] | active | > 80% |  |  |  |
| CCOc1c(C)c(C)c2c(c1C)CCC(C)(COc1ccc(C=C3SC(=O)NC3=O)cc1Br)O2 (stereo not drawn) [Compound 8, 5-[3-Bromo-4-(6-ethoxy-2,5,7,8-tetramethyl-chroman-2-ylmethoxy)-benzylidene]-thiazolidine-2,4-dione] | active | > 80% |  |  |  |
| CC1(CN2C(=O)SC(=Cc3ccc(NS(=O)(=O)c4ccc([N+](=O)[O-])cc4)cc3)C2=O)CCCCC1 [Compound 54, N-{4-[3-(1-Methyl-cyclohexylmethyl)-2,4-dioxo-thiazolidin-5-ylidenemethyl]-phenyl}-4-nitro-benzenesulfonamide] | active | > 80% |  |  |  |
| CCCN1C(=O)SC(=Cc2ccc(O)c(C(F)(F)F)c2)C1=O [Compound 44, 5-(4-Hydroxy-3-trifluoromethyl-benzylidene)-3-propyl-thiazolidine-2,4-dione] |  | > 80% |  |  |  |
| Oc1ccc(C=Cc2cc(O)cc(O)c2)cc1 [resveratrol] |  |  | 110 µM | 60 µM | dose range inducing autophagy in cancer cells [2]: 0.05 to 0.1 mM; IC50 ([3]; summary over LNCaP and MCF-7 cells, read-out: IC50 in suppressing cancer cell growth): 60 to 110 µM; IC50 [4]: ≥ 50 µM; cytotoxicity to normal prostate epithelial cells (PrECs) [5]: low cytotoxicity; inhibition of glucose uptake [8]: significantly inhibit glucose uptake |
| COc1ccc(S(=O)(=O)Nc2ccc(C=C3SC(=O)N(CC4(C)CCCCC4)C3=O)cc2)cc1 [Compound 49, 4-Methoxy-N-{4-[3-(1-methyl-cyclohexylmethyl)-2,4-dioxo-thiazolidin-5-yli-denemethyl]-phenyl}-benzenesulfonamide] | active |  |  |  |  |
| C=CCOc1c(C)c(C)c2c(c1C)CCC(C)(COc1ccc(/C=C3\SC(=O)NC3=O)cc1Br)O2 (stereo not drawn) [STG28] |  |  | 12 µM | 11 µM |  |
| Cc1c(C)c2c(c(C)c1O)CCC(C)(COc1ccc(CC3SC(=O)NC3=O)cc1)O2 (stereo not drawn) [troglitazone] |  |  | 70 µM | 70 µM |  |

Reference: US8383656B2, “Thiazolidinedione energy restriction-mimetic agents” (The Ohio State University Research Foundation, priority 2009, dated 2013)
